Reference: PMC10563079 (Molecules, 2023)
Like-named read-outs stand apart in the source and are kept apart here. Values belong to the molecule of their own block, whether it stands above or below them. Bridge positions count the residues as written; N and C are the ends. Ends that are not written are not given here. Peptide text beside a SMILES is read from it.

Assays:
sPHGDH (1-307) = molecular target: T1, sPHGDH (1-307) (Homo sapiens, UniProt O43175); assay: sPHGDH enzyme activity assay (NADH fluorescence); assay type: biochemical
T1 construct: the truncated version of PHGDH (sPHGDH, 1-307); made in house
T1 sequence (O43175 1-307): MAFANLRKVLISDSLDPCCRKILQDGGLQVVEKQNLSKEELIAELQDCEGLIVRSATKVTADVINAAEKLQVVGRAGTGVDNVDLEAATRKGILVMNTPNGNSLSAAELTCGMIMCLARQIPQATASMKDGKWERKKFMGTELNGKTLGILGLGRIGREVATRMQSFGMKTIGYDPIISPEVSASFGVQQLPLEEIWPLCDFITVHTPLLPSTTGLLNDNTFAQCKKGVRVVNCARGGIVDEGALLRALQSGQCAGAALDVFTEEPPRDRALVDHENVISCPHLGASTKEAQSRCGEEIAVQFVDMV
Procedure: (§1) PHGDH activity in the presence of peptides was measured in 96-well plates (100 μL per well) at 25 °C, through monitoring the NADH fluorescence (excitation at 360 nm and emission at 460 nm) over time. PAST1 and its substrate glutamate were also included in order to prevent product inhibition. In the enzyme assays, protein expression and purification, including the truncated version of PHGDH (sPHGDH, 1-307), the full-length PHGDH (1-533), and PAST1, were carried out as described in our previous papers. To evaluate the effects of peptides on enzyme activity, the peptides were pre-incubated with enzyme samples (sPHGDH 453.3 nM or PHGDH 30.9 nM) in the assay buffer (HEPES 50 mM, pH 7.5, 10 mM MgCl2, and 1 mM EDTA) for 12 h. Then, 1.98 μM PAST1, 1 mM NAD^+, and 30 mM glutamate were added and pre-incubated for 10 min before initiating the enzyme reaction via the addition of the substrate (1 mM 3-PG). Fluorescence signals were recorded for 3 min with the kinetics-reading mode of the Biotek plate reader (Synergy). IC50 values were obtained through fitting the data using a three-parameter Hill model of the graph of log dose against the percentage inhibition from three repeated experiments. For those peptides containing two disulfide bonds, a second step of oxidation reaction was carried out to generate the second disulfide pair. […] The purified Acm-protected peptide was then treated with iodine (I2, 1 wt% in MeOH), dropwise under acidic conditions until the solution became brown.

[1] = molecular target: T2, full-length PHGDH (1-533) (Homo sapiens, UniProt O43175); assay: full-length PHGDH enzyme activity assay (NADH fluorescence); assay type: biochemical
T2 construct: the full-length PHGDH (1-533); made in house
T2 sequence (O43175 1-533): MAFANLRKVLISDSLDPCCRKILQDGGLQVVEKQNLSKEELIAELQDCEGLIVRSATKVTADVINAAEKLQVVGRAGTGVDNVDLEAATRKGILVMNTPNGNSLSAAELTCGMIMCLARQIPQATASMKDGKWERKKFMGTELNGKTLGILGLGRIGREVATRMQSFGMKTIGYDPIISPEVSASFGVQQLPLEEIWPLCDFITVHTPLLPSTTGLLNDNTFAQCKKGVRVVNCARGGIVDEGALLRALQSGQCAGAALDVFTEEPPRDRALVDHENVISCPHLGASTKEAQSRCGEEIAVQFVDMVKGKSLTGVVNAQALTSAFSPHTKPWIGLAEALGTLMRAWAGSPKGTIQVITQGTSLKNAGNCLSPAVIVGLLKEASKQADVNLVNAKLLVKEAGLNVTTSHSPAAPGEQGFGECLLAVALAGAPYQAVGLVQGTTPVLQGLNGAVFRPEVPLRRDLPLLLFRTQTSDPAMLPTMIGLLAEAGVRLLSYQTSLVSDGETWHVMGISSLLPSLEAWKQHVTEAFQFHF
Procedure: as §1

[2] = molecular target: T3, truncated version of PHGDH (sPHGDH, 1-307) (human, UniProt O43175 1-307, labelled with Monolith NT.115 Protein Labeling Kit RED-NHS (in the MST assay only)); assay: MST; sPHGDH labelled with RED-NHS, 20 nM final; peptides in 16 points, 1:2 dilutions from 0.5 mM; 50 mM HEPES pH 7.5, 1 mM EDTA, 10 mM MgCl2, 100 mM NaCl, 0.005% Tween 20; incubated 16 h at room temperature; 1:1 binding mode; apparent; settings: both partners purified
T3 construct: human phosphoglycerate dehydrogenase (PHGDH), catalytic unit, residues 1-307; Exists predominantly as a homo-dimer with a small fraction of monomer; also called catalytic unit of PHGDH; source: recombinant
T3 sequence (looked up): T1 sequence (O43175 1-307)

[3] = molecular target: T3, truncated version of PHGDH (sPHGDH, …); assay: cell-based or functional assay
[4] = sPHGDH, 12 h pre-incubation, read-out: IC50 Value
[5] = read-out: IC50 value (μM), full-length PHGDH activity
[6] = IC50 value (μM), full-length PHGDH activity

IC50 (sPHGDH (1-307); [4]): 5.6 ± 1.2 µM | IC50 [1, 5]: 23.5 ± 2 µM
Molecule: CSCC[C@@H]1NC(=O)[C@H]([C@@H](C)O)NC(=O)[C@H](CC(C)C)NC(=O)[C@H]([C@@H](C)O)NC(=O)[C@H](C)NC(=O)[C@H](CCC(N)=O)NC(=O)[C@@H]2CCCN2C(=O)[C@H]([C@@H](C)O)NC(=O)[C@@H](NC(C)=O)CSSC[C@@H](C(=O)O)NC(=O)[C@H](CCCCN)NC(=O)[C@H](CCCCN)NC(=O)[C@H](CCC(=O)O)NC(=O)[C@H](CCC(=O)O)NC(=O)[C@H](Cc2c[nH]c3ccccc23)NC(=O)[C@H](CCCCN)NC(=O)CNC(=O)[C@H](CC(=O)O)NC(=O)[C@H](CCCCN)NC1=O [Cyc1-7, C1TPQA TLTMK DGKWE EKKC19] (Ac-CTPQATLTMKDGKWEEKKC-OH; disulfide 1-19)

Kd [2]: 24.8 ± 7.1 µM | IC50 of inhibition of sPHGDH enzyme activity (NADH fluorescence); the pair blocked is the sPHGDH homo-dimer (m1+m1) [3]: 5.1 µM
B2: cyclic peptide cyc1-6 (peptide)
peptide: CTPDATLSMKDGKWEEKKC
modifications: disulfide 1-19; not fully specified (N-terminus); printed as C_1_TPDA TLSMK DGKWE EKKC_19_
notes: cyc1-2 with Q4D (peptide numbering); designed from the dimerization loop of human PHGDH; source: synthetic peptide (GL Biochem, Shanghai; Fmoc solid-phase synthesis, HPLC purified)

Kd [2]: 9.8 ± 2.2 µM | IC50 of inhibition of sPHGDH enzyme activity (NADH fluorescence); the pair blocked is the sPHGDH homo-dimer (m1+m1) [3]: 4.7 µM
B3: cyclic peptide cyc1-9 (peptide)
peptide: CTPQATASMKNGSWQEKKC
modifications: disulfide 1-19; not fully specified (N-terminus); printed as C_1_TPQA TASMK NGSWQ EKKC_19_
notes: the text names D11N, K13S and E15Q; designed from the dimerization loop of human PHGDH; source: synthetic peptide (GL Biochem, Shanghai; Fmoc solid-phase synthesis, HPLC purified)

The next lines start with the molecule.

Molecule: CSCC[C@@H]1NC(=O)[C@H](CO)NC(=O)[C@H](CC(C)C)NC(=O)[C@H]([C@@H](C)O)NC(=O)[C@H](C)NC(=O)[C@H](CC(=O)O)NC(=O)[C@@H]2CCCN2C(=O)[C@H]([C@@H](C)O)NC(=O)[C@@H](NC(C)=O)CSSC[C@@H](C(=O)O)NC(=O)[C@H](CCCCN)NC(=O)[C@H](CCCCN)NC(=O)[C@H](CCC(=O)O)NC(=O)[C@H](CCC(=O)O)NC(=O)[C@H](Cc2c[nH]c3ccccc23)NC(=O)[C@H](CCCCN)NC(=O)CNC(=O)[C@H](CC(=O)O)NC(=O)[C@H](CCCCN)NC1=O [Cyc1-6, C1TPDA TLSMK DGKWE EKKC19] (Ac-CTPDATLSMKDGKWEEKKC-OH; disulfide 1-19)
IC50 (sPHGDH (1-307); [4]): 5.1 ± 0.4 µM | IC50 [1, 5]: 24.6 ± 2.3 µM

Molecule: CSCC[C@@H]1NC(=O)[C@@H]2CSSC[C@H](NC(=O)[C@H](Cc3c[nH]c4ccccc34)NC(=O)[C@H](CCCCN)NC(=O)CNC(=O)[C@H](CC(=O)O)NC(=O)[C@H](CC(C)C)NC1=O)C(=O)N[C@@H](CCCNC(=N)N)C(=O)N[C@@H](CCCCN)C(=O)N[C@@H](CCCCN)C(=O)N[C@H](C(=O)O)CSSC[C@H](NC(C)=O)C(=O)N[C@@H]([C@@H](C)O)C(=O)N1CCC[C@H]1C(=O)N[C@@H](CCC(N)=O)C(=O)N[C@@H](C)C(=O)N[C@@H]([C@@H](C)O)C(=O)N[C@@H](C)C(=O)N2 [Cyc2-2, C1TPQA TAC8ML DGKWC15 RKKC19] (Ac-CTPQATACMLDGKWCRKKC-OH; disulfide 1-19, 8-15)
IC50 (sPHGDH (1-307)): 9.4 ± 1.5 µM | IC50 [1, 6]: 32.9 ± 4 µM

Molecule: CSCC[C@@H]1NC(=O)[C@@H]2CSSC[C@H](NC(=O)[C@H](Cc3c[nH]c4ccccc34)NC(=O)[C@H](CCCCN)NC(=O)CNC(=O)[C@H](CC(=O)O)NC(=O)[C@H](CC(C)C)NC1=O)C(=O)N[C@@H](CCC(=O)O)C(=O)N[C@@H](CCCCN)C(=O)N[C@@H](CCCCN)C(=O)N[C@H](C(=O)O)CSSC[C@H](NC(C)=O)C(=O)N[C@@H]([C@@H](C)O)C(=O)N1CCC[C@H]1C(=O)N[C@@H](CCC(N)=O)C(=O)N[C@@H](C)C(=O)N[C@@H]([C@@H](C)O)C(=O)N[C@@H](C)C(=O)N2 [Cyc2-6, C1TPQA TAC8ML DGKWC15 EKKC19] (Ac-CTPQATACMLDGKWCEKKC-OH; disulfide 1-19, 8-15)
IC50 (sPHGDH (1-307)): 15 ± 1 µM | IC50 [1, 6]: 47.1 ± 5.2 µM

B1: cyclic peptide cyc1-2 (peptide)
peptide: CTPQATLSMKDGKWEEKKC
modifications: disulfide 1-19; not fully specified (N-terminus); printed as C_1_TPQA TLSMK DGKWE EKKC_19_
notes: cyc1-1 with A7L and R16E (peptide numbering); designed from the dimerization loop of human PHGDH; source: synthetic peptide (GL Biochem, Shanghai; Fmoc solid-phase synthesis, HPLC purified)
Kd [2]: 11.4 ± 3 µM | IC50 of inhibition of sPHGDH enzyme activity (NADH fluorescence); the pair blocked is the sPHGDH homo-dimer (m1+m1) [3]: 6.4 µM
